Columns and labels:
Assay in all cases: relative viability (nuclei count vs DMSO), 5 days (fraction); higher = more cells survive
NCI-H1563 = test system: NCI-H1563
Outline: (§1)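 One day after seeding in 1536-well plates, lung cancer cell lines were dosed by pin tool. Dosing was either single-drug or a fixed anchor-drug dose plus five library-drug doses (not always all listed) in √10 steps. After 5 days, nuclei were stained in one fix-and-stain step and counted on 4× images, and relative viability is the nuclei count of treated wells over that of vehicle wells, given as the median of duplicate plates.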

LXF-289 = test system: LXF-289
Outline: as §1

NCI-H661 = test system: NCI-H661
Outline: as §1

NCI-H441 = test system: NCI-H441
Outline: as §1

NCI-H1792 = test system: NCI-H1792
Outline: as §1

NCI-H727 = test system: NCI-H727
Outline: as §1

NCI-H520 = test system: NCI-H520
Outline: as §1

NCI-H1915 = test system: NCI-H1915
Outline: as §1

NCI-H2347 = test system: NCI-H2347
Outline: as §1

NCI-H322M = test system: NCI-H322M
Outline: as §1

RERF-LC-KJ = test system: RERF-LC-KJ
Outline: as §1

NCI-H1651 = test system: NCI-H1651
Outline: as §1

NCI-H1355 = test system: NCI-H1355
Outline: as §1

PC-14 = test system: PC-14
Outline: as §1

NCI-H1755 = test system: NCI-H1755
Outline: as §1

NCI-H460 = test system: NCI-H460
Outline: as §1

NCI-H596 = test system: NCI-H596
Outline: as §1

LCLC-103H = test system: LCLC-103H
Outline: as §1

NCI-H3122 = test system: NCI-H3122
Outline: as §1

NCI-H650 = test system: NCI-H650
Outline: as §1

Compound `Oc1nc(-c2ccc(C(F)(F)F)cc2)nc2c1CSCC2` [XAV939] + CC(C)C[C@H](NC(=O)[C@H](Cc1ccccc1)NC(=O)c1cnccn1)B(O)O [Bortezomib] (partner 0.002 µM) has a relative viability (NCI-H1563; first compound 0.08 µM) of 0.835, a relative viability (NCI-H1563; first compound 0.253 µM) of 0.81 and a relative viability (NCI-H1563; first compound 0.8 µM) of 0.798. The relative viability (NCI-H1563; first compound 2.53 µM) was 0.764, the relative viability (LXF-289; first compound 0.08 µM) was 1.05 and the relative viability (LXF-289; first compound 0.253 µM) was 0.966. The relative viability (LXF-289; first compound 0.8 µM) was 0.994, the relative viability (LXF-289; first compound 2.53 µM) was 1.05 and the relative viability (NCI-H661; first compound 0.08 µM) was 0.866. For the same compound, the relative viability (NCI-H661; first compound 0.253 µM) was 0.707, the relative viability (NCI-H661; first compound 0.8 µM) was 0.95 and the relative viability (NCI-H661; first compound 2.53 µM) was 0.495. The relative viability (NCI-H441; first compound 0.08 µM) was 0.45, the relative viability (NCI-H441; first compound 0.253 µM) was 0.401 and the relative viability (NCI-H441; first compound 0.8 µM) was 0.572. For the same compound, the relative viability (NCI-H441; first compound 2.53 µM) was 0.681, the relative viability (NCI-H1792; first compound 0.08 µM) was 0.945 and the relative viability (NCI-H1792; first compound 0.253 µM) was 0.943. The relative viability (NCI-H1792; first compound 0.8 µM) was 0.973, the relative viability (NCI-H1792; first compound 2.53 µM) was 0.869 and the relative viability (NCI-H727; first compound 0.08 µM) was 1.05. For the same compound, the relative viability (NCI-H727; first compound 0.253 µM) was 0.589, the relative viability (NCI-H727; first compound 0.8 µM) was 0.803 and the relative viability (NCI-H727; first compound 2.53 µM) was 0.957. The relative viability (NCI-H520; first compound 0.08 µM) was 0.612, the relative viability (NCI-H520; first compound 0.253 µM) was 0.317 and the relative viability (NCI-H520; first compound 0.8 µM) was 0.659. For the same compound, the relative viability (NCI-H520; first compound 2.53 µM) was 0.368, the relative viability (NCI-H1915; first compound 0.08 µM) was 1.06 and the relative viability (NCI-H1915; first compound 0.253 µM) was 0.974. It also gave a relative viability (NCI-H1915; first compound 0.8 µM) of 0.983, a relative viability (NCI-H1915; first compound 2.53 µM) of 1.14 and a relative viability (NCI-H2347; first compound 0.08 µM) of 1.27. The relative viability (NCI-H2347; first compound 0.253 µM) was 0.75, the relative viability (NCI-H2347; first compound 0.8 µM) was 1.02 and the relative viability (NCI-H2347; first compound 2.53 µM) was 0.837. For the same compound, the relative viability (NCI-H322M; first compound 0.08 µM) was 1.39, the relative viability (NCI-H322M; first compound 0.253 µM) was 0.996 and the relative viability (NCI-H322M; first compound 0.8 µM) was 1.1. It also gave a relative viability (NCI-H322M; first compound 2.53 µM) of 0.976, a relative viability (RERF-LC-KJ; first compound 0.08 µM) of 0.864 and a relative viability (RERF-LC-KJ; first compound 0.253 µM) of 0.98. It also gave a relative viability (RERF-LC-KJ; first compound 0.8 µM) of 0.886, a relative viability (RERF-LC-KJ; first compound 2.53 µM) of 0.744 and a relative viability (NCI-H1651; first compound 0.08 µM) of 0.906. For the same compound, the relative viability (NCI-H1651; first compound 0.253 µM) was 0.905, the relative viability (NCI-H1651; first compound 0.8 µM) was 0.942 and the relative viability (NCI-H1651; first compound 2.53 µM) was 0.925. For the same compound, the relative viability (NCI-H1355; first compound 0.08 µM) was 1.17, the relative viability (NCI-H1355; first compound 0.253 µM) was 1.06 and the relative viability (NCI-H1355; first compound 0.8 µM) was 1.21. For the same compound, the relative viability (NCI-H1355; first compound 2.53 µM) was 0.81, the relative viability (PC-14; first compound 0.08 µM) was 0.825 and the relative viability (PC-14; first compound 0.253 µM) was 0.808. For the same compound, the relative viability (PC-14; first compound 0.8 µM) was 0.846, the relative viability (PC-14; first compound 2.53 µM) was 0.794 and the relative viability (NCI-H1755; first compound 0.08 µM) was 0.91. For the same compound, the relative viability (NCI-H1755; first compound 0.253 µM) was 0.884, the relative viability (NCI-H1755; first compound 0.8 µM) was 0.86 and the relative viability (NCI-H1755; first compound 2.53 µM) was 0.868. For the same compound, the relative viability (NCI-H460; first compound 0.08 µM) was 1.45, the relative viability (NCI-H460; first compound 0.253 µM) was 1.07 and the relative viability (NCI-H460; first compound 0.8 µM) was 1.05. For the same compound, the relative viability (NCI-H460; first compound 2.53 µM) was 1.08, the relative viability (NCI-H596; first compound 0.08 µM) was 1.11 and the relative viability (NCI-H596; first compound 0.253 µM) was 1.1. For the same compound, the relative viability (NCI-H596; first compound 0.8 µM) was 1.09, the relative viability (NCI-H596; first compound 2.53 µM) was 1.3 and the relative viability (LCLC-103H; first compound 0.08 µM) was 0.936. It also gave a relative viability (LCLC-103H; first compound 0.253 µM) of 1.11, a relative viability (LCLC-103H; first compound 0.8 µM) of 0.861 and a relative viability (LCLC-103H; first compound 2.53 µM) of 1.01. For the same compound, the relative viability (NCI-H3122; first compound 0.08 µM) was 1.09, the relative viability (NCI-H3122; first compound 0.253 µM) was 1.01 and the relative viability (NCI-H3122; first compound 0.8 µM) was 1.03. The relative viability (NCI-H3122; first compound 2.53 µM) was 0.944, the relative viability (NCI-H650; first compound 0.08 µM) was 0.838 and the relative viability (NCI-H650; first compound 0.253 µM) was 0.882. The relative viability (NCI-H650; first compound 0.8 µM) was 0.854 and the relative viability (NCI-H650; first compound 2.53 µM) was 0.703.
